Test system: Phytophthora infestans
Format: in vivo
Settings: neighbouring plot, mancozeb at 1600 g/ha

mancozeb
efficacy, compared with the composition of compounds (I) and (II): about one-half
